Experiments:
Conditions in all cases: 48 h
NOMO1 [1] = experiment: AUC of viability dose-response curve (% viability x log10 dose units); higher = less sensitive
Outline: (§1)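 Library compounds in DMSO were applied for 48 h at 37°C at 11 threefold doses (47 μM to 0.79 nM) to medium-adapted leukemia cells in 1536-well plates holding 500 or 1000 cells/well. Luminescence from CellTiter-Glo One was normalised plate by plate against DMSO and cell-free wells. Area under the curve came from trapezoidal integration of a log-logistic fit, after scaling curves that rose above full viability and discarding those that failed quality control. The fit had four parameters and used log10 doses.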

P12-Ichikawa [2] = experiment: as above
Outline: as §1

SEM cells [3] = experiment: as above
Outline: as §1

NOMO1 [4] = experiment: cell viability relative to DMSO control; higher = less cytotoxic
Outline: (§2)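 Viability is expressed as a percentage of DMSO wells within each plate, and cell-free wells serve as background. Seeding densities in the 1536-well plates (5 μl) were 500 cells/well for NOMO1 or SEM leukemia cells and 1000 cells/well for P12-Ichikawa. Each line was adapted for at least four passages in each medium. Library compounds in DMSO were pin-dosed at 47 μM to 0.79 nM (11 points, threefold), and CellTiter-Glo One luminescence was read after 48 h at 37°C.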

P12-Ichikawa [5] = experiment: as above
Outline: as §2

SEM cells [6] = experiment: as above
Outline: as §2

Cc1ccc(C(=O)Nc2cccc(C(F)(F)F)c2)cc1Nc1nc(-c2cccnc2)nc2c1cnn2C
AUC of viability dose-response curve
Conditions | NOMO1 [1] | P12-Ichikawa [2] | SEM cells [3]
HPLM + 10% dialyzed FBS | 392 | 421 | 362
RPMI 5 mM glucose + 10% FBS | 396 | 393 | 411
RPMI 5 mM glucose + 10% dialyzed FBS | 409 | 416 | 407

cell viability [%]
Conditions | NOMO1 [4] | P12-Ichikawa [5] | SEM cells [6]
HPLM + 10% dialyzed FBS, 0.000781 µM | 87.4 | 88.1 | 38.9
HPLM + 10% dialyzed FBS, 0.00234 µM | 80.6 | 90.8 | 83.8
HPLM + 10% dialyzed FBS, 0.00702 µM | 97.4 | 93.7 | 89.1
HPLM + 10% dialyzed FBS, 0.0211 µM | 97.6 | 89.5 | 87.7
HPLM + 10% dialyzed FBS, 0.0632 µM | 88.4 | 91.2 | 78.7
HPLM + 10% dialyzed FBS, 0.19 µM | 104 | 90 | 95.3
HPLM + 10% dialyzed FBS, 0.569 µM | 74 | 86.6 | 90.5
HPLM + 10% dialyzed FBS, 1.71 µM | 56.5 | 85.9 | 75.3
HPLM + 10% dialyzed FBS, 5.12 µM | 71.2 | 83.3 | 83.9
HPLM + 10% dialyzed FBS, 15.4 µM | 67.8 | 86.7 | 59
HPLM + 10% dialyzed FBS, 46.1 µM | 78 | 84 | 53.4
RPMI 5 mM glucose + 10% FBS, 0.000781 µM | 83.5 | 73.1 | 58.7
RPMI 5 mM glucose + 10% FBS, 0.00234 µM | 84.8 | 83.8 | 103
RPMI 5 mM glucose + 10% FBS, 0.00702 µM | 94.5 | 88.9 | 104
RPMI 5 mM glucose + 10% FBS, 0.0211 µM | 77.4 | 85.6 | 102
RPMI 5 mM glucose + 10% FBS, 0.0632 µM | 85.1 | 83.9 | 85.7
RPMI 5 mM glucose + 10% FBS, 0.19 µM | 87.4 | 82.8 | 101
RPMI 5 mM glucose + 10% FBS, 0.569 µM | 77.6 | 87.5 | 83
RPMI 5 mM glucose + 10% FBS, 1.71 µM | 84.9 | 88.2 | 83
RPMI 5 mM glucose + 10% FBS, 5.12 µM | 87.7 | 79.5 | 98.4
RPMI 5 mM glucose + 10% FBS, 15.4 µM | 73.4 | 78.8 | 56.8
RPMI 5 mM glucose + 10% FBS, 46.1 µM | 76.4 | 74.5 | 60.6
RPMI 5 mM glucose + 10% dialyzed FBS, 0.000781 µM | 84.8 | 90.8 | 31
RPMI 5 mM glucose + 10% dialyzed FBS, 0.00234 µM | 86.2 | 85.2 | 92.1
RPMI 5 mM glucose + 10% dialyzed FBS, 0.00702 µM | 87.6 | 87.6 | 109
RPMI 5 mM glucose + 10% dialyzed FBS, 0.0211 µM | 87.2 | 86.7 | 83.8
RPMI 5 mM glucose + 10% dialyzed FBS, 0.0632 µM | 90.7 | 95.5 | 82.8
RPMI 5 mM glucose + 10% dialyzed FBS, 0.19 µM | 89.1 | 84.7 | 97.7
RPMI 5 mM glucose + 10% dialyzed FBS, 0.569 µM | 83.7 | 90.9 | 92.1
RPMI 5 mM glucose + 10% dialyzed FBS, 1.71 µM | 77.4 | 96.7 | 81.1
RPMI 5 mM glucose + 10% dialyzed FBS, 5.12 µM | 93.8 | 75.8 | 113
RPMI 5 mM glucose + 10% dialyzed FBS, 15.4 µM | 77.6 | 76.8 | 68.5
RPMI 5 mM glucose + 10% dialyzed FBS, 46.1 µM | 85.3 | 86.5 | 62.1
